Results taken from ChEMBL document CHEMBL1201862, “PubChem BioAssay data set” (2004).
The source made the active and inactive calls.

Key:
[1] = biological target: T1, Short transient receptor potential channel 4 (Mus musculus, UniProt Q9QUQ5); test: mouse TRPC4 channel activators, dose response, cell-based, HEK293 TRPC4/mu-opioid, Fluo-4 calcium (AID 434937); type: functional
T1 sequence (Q9QUQ5 whole entry): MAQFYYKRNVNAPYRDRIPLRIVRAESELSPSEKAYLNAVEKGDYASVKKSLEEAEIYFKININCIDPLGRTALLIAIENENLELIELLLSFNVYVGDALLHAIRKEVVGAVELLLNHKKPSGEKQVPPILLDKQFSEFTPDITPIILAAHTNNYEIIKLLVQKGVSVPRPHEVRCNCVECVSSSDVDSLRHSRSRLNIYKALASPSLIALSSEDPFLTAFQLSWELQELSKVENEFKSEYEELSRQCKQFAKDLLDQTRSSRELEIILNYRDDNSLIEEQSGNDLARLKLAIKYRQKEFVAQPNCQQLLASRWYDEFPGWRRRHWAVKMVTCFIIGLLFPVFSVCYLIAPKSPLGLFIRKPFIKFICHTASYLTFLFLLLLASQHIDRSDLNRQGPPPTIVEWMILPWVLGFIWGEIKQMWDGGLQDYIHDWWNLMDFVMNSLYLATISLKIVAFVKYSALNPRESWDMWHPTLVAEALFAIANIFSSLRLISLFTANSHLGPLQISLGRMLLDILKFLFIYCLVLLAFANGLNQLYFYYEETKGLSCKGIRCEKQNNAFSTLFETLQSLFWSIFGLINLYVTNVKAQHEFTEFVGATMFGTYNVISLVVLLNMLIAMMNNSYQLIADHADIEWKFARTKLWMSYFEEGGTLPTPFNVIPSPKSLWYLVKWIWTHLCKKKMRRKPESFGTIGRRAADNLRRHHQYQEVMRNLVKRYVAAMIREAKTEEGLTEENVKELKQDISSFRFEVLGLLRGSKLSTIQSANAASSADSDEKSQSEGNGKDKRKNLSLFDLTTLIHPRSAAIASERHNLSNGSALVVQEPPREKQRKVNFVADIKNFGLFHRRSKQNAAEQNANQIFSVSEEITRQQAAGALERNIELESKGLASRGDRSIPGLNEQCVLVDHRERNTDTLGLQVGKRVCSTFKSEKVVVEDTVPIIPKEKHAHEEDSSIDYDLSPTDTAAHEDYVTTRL

[2] = biological target: Delta-type opioid receptor (Homo sapiens, UniProt P41143); test: Counterscreen for agonists of heterodimerization of the mu 1 (OPRM1) and delta 1 (OPRD1) opioid receptors: Luminescence-based cell-based high throughput dose response assay to identify agonists of OPRD1 homodimerization. [Related pubchem assays (depositor defined):AID504326, AID504355, AID504692, AID504904, AID504905]; type: functional
Mu-type opioid receptor = Mu-type opioid receptor (Homo sapiens, UniProt P35372); test: Counterscreen for agonists of heterodimerization of the mu 1 (OPRM1) and delta 1 (OPRD1) opioid receptors: Luminescence-based cell-based high throughput dose response assay to identify agonists of OPRM1 homodimerization.; type: functional;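 note: U2OS cells expressing OPRM1 and beta-arrestin as split beta-galactosidase partners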
[3] = biological target: 5-hydroxytryptamine receptor 5A (Homo sapiens, UniProt P47898); test: Counterscreen for agonists of OPRM1-OPRD1 heterodimerization: luminescence-based cell-based high throughput dose response assay to identify agonists of 5-hydroxytryptamine (serotonin) 5A receptor (HTR5A). [Related pubchem assays (depositor defined):AID504326, AID504355, AID504692, AID504904, AID504905]; type: functional
[4] = biological target: T2, Corticotropin-releasing factor receptor 2/Corticotropin-releasing factor-binding protein (Homo sapiens, UniProt P24387+Q13324); test: Dose Response confirmation of uHTS hits for small molecule antagonists of the CRF-binding protein and CRF-R2 receptor complex.; type: functional; details: read-out: IC50_Mean
T2 sequence (Q13324 whole entry): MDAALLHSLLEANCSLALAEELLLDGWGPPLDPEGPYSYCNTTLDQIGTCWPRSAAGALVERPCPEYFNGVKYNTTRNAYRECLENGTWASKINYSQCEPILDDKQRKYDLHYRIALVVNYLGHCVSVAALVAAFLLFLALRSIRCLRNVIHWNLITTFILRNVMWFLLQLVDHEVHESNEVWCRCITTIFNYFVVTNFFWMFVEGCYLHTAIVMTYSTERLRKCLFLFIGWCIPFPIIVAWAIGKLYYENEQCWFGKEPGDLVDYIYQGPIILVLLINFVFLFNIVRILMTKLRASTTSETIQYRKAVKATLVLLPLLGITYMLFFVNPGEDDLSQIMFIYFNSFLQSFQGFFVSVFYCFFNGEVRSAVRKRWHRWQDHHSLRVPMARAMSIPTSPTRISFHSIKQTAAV
T2 sequence (P24387 whole entry): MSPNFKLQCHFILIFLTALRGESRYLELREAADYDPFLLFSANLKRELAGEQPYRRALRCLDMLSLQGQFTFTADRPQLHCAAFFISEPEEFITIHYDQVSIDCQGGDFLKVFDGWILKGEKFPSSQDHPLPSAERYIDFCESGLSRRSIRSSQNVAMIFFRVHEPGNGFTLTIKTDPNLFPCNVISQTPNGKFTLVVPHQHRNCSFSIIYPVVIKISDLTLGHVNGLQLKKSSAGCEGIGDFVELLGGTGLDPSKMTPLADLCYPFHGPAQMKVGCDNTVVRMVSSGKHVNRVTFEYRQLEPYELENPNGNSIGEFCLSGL

[5] = biological target: T2, Corticotropin-releasing factor receptor 2/Corticotropin-releasing factor-binding protein; test: activators of CRF receptor 2 with binding protein – uHTS hits, confirmation (AID 602473); type: functional; details: read-out: EC50_Mean
Caspase-3 = biological target: T3, Caspase-3 (Homo sapiens, UniProt P42574); type: functional;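 note: Dose-response selectivity test against caspase-3 for candidate inhibitors of sentrin-specific proteases (SENPs)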
T3 sequence (P42574 whole entry): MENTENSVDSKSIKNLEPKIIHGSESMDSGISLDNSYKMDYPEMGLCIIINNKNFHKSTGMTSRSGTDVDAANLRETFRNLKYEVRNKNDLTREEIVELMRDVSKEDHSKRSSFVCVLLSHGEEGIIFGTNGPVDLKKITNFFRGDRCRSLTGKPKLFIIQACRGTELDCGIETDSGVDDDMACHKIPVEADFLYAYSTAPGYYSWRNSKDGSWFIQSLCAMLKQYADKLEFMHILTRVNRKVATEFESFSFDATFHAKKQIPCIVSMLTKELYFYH

[6] = biological target: T4, Sentrin-specific protease 7 (Homo sapiens, UniProt Q9BQF6); type: functional;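 note: Luminescence-based dose-response confirmation of ultra-high-throughput screening hits, measuring inhibition of SENP7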
T4 sequence (Q9BQF6 whole entry): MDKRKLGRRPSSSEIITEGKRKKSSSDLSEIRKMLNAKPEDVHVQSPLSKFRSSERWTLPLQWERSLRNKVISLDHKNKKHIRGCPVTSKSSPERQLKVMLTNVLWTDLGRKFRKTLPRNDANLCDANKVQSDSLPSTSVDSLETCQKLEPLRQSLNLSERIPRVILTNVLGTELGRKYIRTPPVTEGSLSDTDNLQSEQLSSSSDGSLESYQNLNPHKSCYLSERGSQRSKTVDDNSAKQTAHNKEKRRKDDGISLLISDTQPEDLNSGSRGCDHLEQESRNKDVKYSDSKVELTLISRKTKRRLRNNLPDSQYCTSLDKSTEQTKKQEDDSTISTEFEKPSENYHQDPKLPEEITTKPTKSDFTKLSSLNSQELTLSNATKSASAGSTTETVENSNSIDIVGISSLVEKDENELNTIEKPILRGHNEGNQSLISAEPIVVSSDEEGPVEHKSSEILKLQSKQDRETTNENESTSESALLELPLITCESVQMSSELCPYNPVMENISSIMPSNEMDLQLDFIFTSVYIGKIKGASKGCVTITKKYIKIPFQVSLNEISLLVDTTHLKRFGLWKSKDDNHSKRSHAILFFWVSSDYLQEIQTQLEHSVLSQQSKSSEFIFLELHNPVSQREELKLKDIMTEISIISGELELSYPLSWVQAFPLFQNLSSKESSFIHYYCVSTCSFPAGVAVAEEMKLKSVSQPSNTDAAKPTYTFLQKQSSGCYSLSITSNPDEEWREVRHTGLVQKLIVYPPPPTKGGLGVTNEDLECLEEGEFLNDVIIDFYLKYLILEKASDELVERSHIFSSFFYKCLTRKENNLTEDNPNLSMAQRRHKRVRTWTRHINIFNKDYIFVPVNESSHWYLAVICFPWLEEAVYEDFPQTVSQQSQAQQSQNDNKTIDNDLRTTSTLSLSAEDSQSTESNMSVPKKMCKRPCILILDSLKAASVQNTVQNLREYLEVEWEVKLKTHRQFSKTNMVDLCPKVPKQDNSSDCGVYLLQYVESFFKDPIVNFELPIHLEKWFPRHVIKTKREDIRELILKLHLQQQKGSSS

[7] = biological target: T5, Sentrin-specific protease 6 (Homo sapiens, UniProt Q9GZR1); type: functional;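 note: Luminescence-based dose-response confirmatory assay of SENP6 inhibition, following up an ultra-high-throughput screen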
T5 sequence (Q9GZR1 whole entry): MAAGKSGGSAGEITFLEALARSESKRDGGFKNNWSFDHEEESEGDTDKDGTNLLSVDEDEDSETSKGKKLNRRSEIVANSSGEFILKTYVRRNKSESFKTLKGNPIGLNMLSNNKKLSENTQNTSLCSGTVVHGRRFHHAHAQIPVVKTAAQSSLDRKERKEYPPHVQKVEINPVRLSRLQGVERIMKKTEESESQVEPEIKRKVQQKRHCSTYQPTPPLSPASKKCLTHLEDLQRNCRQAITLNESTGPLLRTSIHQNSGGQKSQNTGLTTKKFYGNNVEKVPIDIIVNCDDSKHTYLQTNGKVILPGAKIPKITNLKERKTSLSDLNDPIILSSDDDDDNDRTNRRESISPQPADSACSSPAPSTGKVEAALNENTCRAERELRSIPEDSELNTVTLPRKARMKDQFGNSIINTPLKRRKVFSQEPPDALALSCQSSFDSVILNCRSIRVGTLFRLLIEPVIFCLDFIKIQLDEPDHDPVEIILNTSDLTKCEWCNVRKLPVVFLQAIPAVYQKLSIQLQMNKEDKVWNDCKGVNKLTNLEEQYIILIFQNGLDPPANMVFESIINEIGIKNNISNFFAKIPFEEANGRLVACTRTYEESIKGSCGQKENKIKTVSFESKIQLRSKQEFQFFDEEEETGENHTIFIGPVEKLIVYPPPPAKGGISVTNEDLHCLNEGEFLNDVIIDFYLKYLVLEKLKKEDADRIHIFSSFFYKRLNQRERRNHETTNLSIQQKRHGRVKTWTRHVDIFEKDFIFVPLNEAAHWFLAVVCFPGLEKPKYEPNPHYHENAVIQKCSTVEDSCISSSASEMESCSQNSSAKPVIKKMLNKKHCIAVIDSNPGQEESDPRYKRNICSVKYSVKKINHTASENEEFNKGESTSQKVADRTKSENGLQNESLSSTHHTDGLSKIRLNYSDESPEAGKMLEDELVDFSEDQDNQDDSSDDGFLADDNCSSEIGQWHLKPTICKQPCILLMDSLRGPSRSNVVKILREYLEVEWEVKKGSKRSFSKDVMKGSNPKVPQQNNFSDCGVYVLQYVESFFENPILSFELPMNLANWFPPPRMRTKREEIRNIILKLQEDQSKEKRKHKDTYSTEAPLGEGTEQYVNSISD

[8] = biological target: T6, Sentrin-specific protease 8 (Homo sapiens, UniProt Q96LD8); type: functional;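 note: luminescence read-out of SENP8 inhibition, dose-response confirmation following an ultra-high-throughput screen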
T6 sequence (Q96LD8 whole entry): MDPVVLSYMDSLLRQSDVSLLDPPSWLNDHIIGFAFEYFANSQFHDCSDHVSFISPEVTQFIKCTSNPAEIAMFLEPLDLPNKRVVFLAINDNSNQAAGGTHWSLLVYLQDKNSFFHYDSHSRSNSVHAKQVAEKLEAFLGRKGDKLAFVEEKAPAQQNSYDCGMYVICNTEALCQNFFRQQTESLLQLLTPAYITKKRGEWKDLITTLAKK

[9] = HEp-2 cell cytotoxicity, dose response, cytotoxicity control for RSV inhibitor project, HTS (AID 2410); type: functional; details: human respiratory syncytial virus
Cytochrome P450 3A4 = Cytochrome P450 3A4 (Homo sapiens, UniProt P08684);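 note: CYP3A4 tested as one member of a cytochrome P450 panel screen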
[10] = biological target: T7, Carboxy-terminal domain RNA polymerase II polypeptide A small phosphatase 1 (Homo sapiens, UniProt Q9GZU7); test: inhibitors of CTDSP1, concentration-response testing, biochemical assay, absorbance-based, actives from ultra-high-throughput screening (AID 540297); type: functional
T7 sequence (Q9GZU7 whole entry): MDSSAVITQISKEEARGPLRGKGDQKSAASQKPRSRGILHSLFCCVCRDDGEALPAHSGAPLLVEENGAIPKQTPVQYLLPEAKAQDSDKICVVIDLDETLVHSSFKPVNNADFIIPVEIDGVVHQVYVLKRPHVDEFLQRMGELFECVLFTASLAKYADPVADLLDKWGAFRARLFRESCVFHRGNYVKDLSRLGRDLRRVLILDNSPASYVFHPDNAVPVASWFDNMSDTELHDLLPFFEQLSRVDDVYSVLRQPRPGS

[11] = biological target: T8, Probable nicotinate-nucleotide adenylyltransferase (Staphylococcus aureus (strain N315), UniProt P65502); type: functional, Staphylococcus aureus subsp. aureus N315;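 for IC50 Mean: confirmatory dose-response retesting of NadD inhibitor hits first found in an ultra-high-throughput screen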
[12] = biological target: T8, Probable nicotinate-nucleotide adenylyltransferase; type: functional, Staphylococcus aureus subsp. aureus N315; details: read-out: IC50_Mean

5-hydroxytryptamine receptor 5A, sequence (P47898 whole entry): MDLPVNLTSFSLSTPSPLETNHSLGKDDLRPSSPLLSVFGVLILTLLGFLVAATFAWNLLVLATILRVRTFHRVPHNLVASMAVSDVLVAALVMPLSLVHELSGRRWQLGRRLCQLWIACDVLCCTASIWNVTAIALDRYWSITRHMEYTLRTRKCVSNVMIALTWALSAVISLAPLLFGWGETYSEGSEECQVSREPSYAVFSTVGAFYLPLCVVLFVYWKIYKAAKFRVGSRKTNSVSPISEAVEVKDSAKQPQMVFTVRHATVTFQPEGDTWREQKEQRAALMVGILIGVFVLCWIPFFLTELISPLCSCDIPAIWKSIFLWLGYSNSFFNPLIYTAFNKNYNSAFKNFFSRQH
Cytochrome P450 3A4, sequence (P08684 whole entry, the tested form may be a part): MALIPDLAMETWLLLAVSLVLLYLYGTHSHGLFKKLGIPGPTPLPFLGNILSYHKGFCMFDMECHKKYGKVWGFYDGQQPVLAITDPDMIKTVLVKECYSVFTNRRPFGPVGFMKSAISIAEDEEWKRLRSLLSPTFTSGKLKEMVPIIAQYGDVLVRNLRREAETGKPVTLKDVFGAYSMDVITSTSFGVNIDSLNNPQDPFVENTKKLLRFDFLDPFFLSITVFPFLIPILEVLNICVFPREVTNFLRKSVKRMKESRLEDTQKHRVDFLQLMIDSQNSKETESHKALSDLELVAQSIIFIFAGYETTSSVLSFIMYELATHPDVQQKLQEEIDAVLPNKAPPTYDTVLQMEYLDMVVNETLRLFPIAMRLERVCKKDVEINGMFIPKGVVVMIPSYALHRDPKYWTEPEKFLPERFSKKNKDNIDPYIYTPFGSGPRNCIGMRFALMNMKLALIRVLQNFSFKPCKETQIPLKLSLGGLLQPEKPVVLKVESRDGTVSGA
Delta-type opioid receptor, sequence (P41143 whole entry): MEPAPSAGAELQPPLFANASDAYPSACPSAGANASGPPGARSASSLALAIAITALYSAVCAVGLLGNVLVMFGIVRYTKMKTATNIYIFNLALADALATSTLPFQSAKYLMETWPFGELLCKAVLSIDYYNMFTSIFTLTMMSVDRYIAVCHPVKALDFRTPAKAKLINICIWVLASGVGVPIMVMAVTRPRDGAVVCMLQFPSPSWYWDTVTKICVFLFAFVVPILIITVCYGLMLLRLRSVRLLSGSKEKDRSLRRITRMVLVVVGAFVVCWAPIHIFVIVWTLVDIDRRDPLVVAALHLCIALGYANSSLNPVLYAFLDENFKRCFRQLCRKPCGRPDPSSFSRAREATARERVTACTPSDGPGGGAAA
Mu-type opioid receptor, sequence (P35372 whole entry): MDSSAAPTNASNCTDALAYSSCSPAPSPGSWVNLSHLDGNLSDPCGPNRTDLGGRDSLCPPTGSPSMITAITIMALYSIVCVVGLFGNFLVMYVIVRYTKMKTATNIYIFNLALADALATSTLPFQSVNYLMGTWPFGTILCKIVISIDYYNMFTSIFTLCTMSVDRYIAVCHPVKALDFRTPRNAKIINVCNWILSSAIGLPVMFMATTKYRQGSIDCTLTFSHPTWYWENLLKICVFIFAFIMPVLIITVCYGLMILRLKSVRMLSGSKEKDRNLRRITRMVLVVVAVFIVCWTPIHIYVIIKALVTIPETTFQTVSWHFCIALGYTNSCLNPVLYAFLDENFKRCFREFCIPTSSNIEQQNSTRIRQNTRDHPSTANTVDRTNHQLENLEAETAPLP

Row | IC50 (Caspase-3) | IC50 [6] | IC50 [7] | Compound | IC50 [8] | other results
1 | – | – | – | COc1ccc(-c2nn(-c3ccccc3C)cc2CNCc2cccnc2)cc1F | – | EC50 [1]: 3.76 µM (active); EC50 [2]: > 92.5 µM (inactive); EC50 (Mu-type opioid receptor): > 92.5 µM (inactive); EC50 [3]: > 92.5 µM (inactive); IC50 [4]: > 47.1 µM (inactive); EC50 [5]: > 53 µM (inactive)
2 | 26.8 µM (active) | 24.2 µM (active) | 14.9 µM (active) | CC(C)CSC1=NSC2=NC(=O)/C(=C\c3cccs3)C(=N)N12 | 18.5 µM (active) | –
3 | 59.7 µM (active) | 4.87 µM (active) | 15 µM (active) | Oc1c(-c2cc(-c3ccco3)[nH]n2)ccc2ccccc12 | 19.3 µM (active) | –
4 | 4.06 µM (active) | 4.62 µM (active) | 6.55 µM (active) | C/C(=N\NC(=O)c1ccc(Br)cc1)c1ccccc1 | > 100 µM (inactive) | AC50 (Cytochrome P450 3A4): 15.8 µM (inconclusive)
5 | – | – | – | O=C(O)Cc1sc(N/N=C\c2ccccc2)nc1-c1ccccc1 | – | IC50 [10]: 5.14 µM (active); IC50 [11]: 9.86 µM (active); IC50 [12]: 27.7 µM (active)

Row | Compound | IC50 (Caspase-3) | IC50 [6] | IC50 [7] | IC50 [8] | other results
6 | O=C(COc1ccc2ccccc2c1)Nc1ccccc1C(=O)O | 15.2 µM (active) | 13.4 µM (active) | 25.5 µM (active) | 43.4 µM (active) | CC50 [9]: 32.9 µM (active); IC50 (cells): 41.5 µM (active)
